Laboratory results reported in patent US20260216350A1 (UNIVERSITY OF NOTRE DAME DU LAC, priority 2023, published 2026).

Key:
[1] = system: STZ-induced diabetic mice; experiment: Multi-day blood glucose control study; format: in vivo, mouse
Procedure: (§1) STZ Mouse Model. […] Specifics of these studies are detailed here:
Multi-Day Blood Glucose Control Study. […] BGL was then monitored for an additional 3 h following IPGTT. Mice were fasted during the entire IPGTT period with free access to water. Mice were fed after IPGTT. At 48 h post treatment, mice were fasted for 5 h followed by an IPGTT challenge for 3 h. Mice were then fed at the end of IPGTT. The IPGTT challenges were repeated on Day 4 and Day 6. Area under the curve (AUC) for each IPGTT cycle was calculated using the trapezoidal rule and statistically analyzed using GraphPad Prism v 9.0.

insulin receptor = insulin receptor (Homo sapiens, UniProt P06213); settings: cited from earlier work
insulin receptor, sequence (P06213 28-758 limits assumed, species assumed): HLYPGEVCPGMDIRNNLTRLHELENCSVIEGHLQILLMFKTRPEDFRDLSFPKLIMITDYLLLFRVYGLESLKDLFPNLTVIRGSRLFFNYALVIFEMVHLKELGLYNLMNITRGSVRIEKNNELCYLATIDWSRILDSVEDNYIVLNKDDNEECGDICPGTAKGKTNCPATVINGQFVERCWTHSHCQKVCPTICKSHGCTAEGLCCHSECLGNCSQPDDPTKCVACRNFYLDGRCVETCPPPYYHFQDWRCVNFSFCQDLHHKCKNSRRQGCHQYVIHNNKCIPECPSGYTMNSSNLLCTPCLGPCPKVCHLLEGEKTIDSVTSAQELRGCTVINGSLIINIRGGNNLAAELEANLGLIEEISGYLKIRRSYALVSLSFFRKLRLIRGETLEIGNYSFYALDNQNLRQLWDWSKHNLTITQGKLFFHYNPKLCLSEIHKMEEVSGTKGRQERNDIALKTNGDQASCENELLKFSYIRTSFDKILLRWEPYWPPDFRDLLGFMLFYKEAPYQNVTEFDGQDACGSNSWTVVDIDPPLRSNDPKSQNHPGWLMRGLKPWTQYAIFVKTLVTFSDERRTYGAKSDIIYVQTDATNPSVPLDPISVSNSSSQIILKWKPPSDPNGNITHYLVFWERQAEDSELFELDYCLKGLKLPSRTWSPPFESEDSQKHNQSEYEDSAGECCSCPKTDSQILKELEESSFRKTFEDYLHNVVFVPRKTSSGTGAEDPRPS
insulin receptor, sequence (P06213 763-1382 partner limits assumed, species assumed): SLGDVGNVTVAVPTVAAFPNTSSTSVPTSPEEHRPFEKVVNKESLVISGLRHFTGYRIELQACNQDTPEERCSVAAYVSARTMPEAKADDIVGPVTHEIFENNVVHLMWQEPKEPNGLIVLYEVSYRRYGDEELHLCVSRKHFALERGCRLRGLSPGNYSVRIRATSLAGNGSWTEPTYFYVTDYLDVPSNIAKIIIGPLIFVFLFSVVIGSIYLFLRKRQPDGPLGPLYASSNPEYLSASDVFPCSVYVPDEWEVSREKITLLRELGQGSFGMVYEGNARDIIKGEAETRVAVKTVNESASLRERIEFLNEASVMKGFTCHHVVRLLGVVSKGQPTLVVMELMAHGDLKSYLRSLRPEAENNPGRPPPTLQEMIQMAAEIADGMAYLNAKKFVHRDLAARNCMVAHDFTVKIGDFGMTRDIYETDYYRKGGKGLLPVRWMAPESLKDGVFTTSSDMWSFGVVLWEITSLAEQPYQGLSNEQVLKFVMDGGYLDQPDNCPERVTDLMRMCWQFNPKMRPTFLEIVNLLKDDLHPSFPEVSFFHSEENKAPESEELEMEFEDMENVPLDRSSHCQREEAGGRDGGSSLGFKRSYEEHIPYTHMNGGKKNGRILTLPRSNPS

STZ diabetic mice [2] = experiment: Long term blood glucose control study (serial dosing); format: in vivo, mouse
Procedure: as §1
Long term blood glucose control study. Healthy mice were first weighed individually and injected STZ following the above protocol. […] Mice were fed after treatment injection and brought back to their cage on Day 0. […] For all other groups, 48 h post treatment injection, mice were fasted for 5 h to adjust for time since last eating, followed with BGL measurement. The same process was repeated at 96 h following treatment injection. After measurement, mice were weighed individually. Mice were then re-dosed with the same formula every 5 days, collecting BGL at 48 h and 96 h following treatment with a 5 h fast; the process was repeated for one month.

[3] = system: STZ-induced diabetic mouse model; experiment: Determination of functional formulation and dose in STZ mice; settings: unmodified insulin 0.17 mg/kg; complexes 0.17 or 3.5 mg/kg Insulin-DiPBA
Procedure: (§2) STZ Mouse Model. A chemically induce diabetes mouse model were established in male C57BL6/J mice (8 weeks, 25 g, Jackson Laboratory) using streptozotocin (STZ), according to common protocols. Mice were fasted for 4 h prior to injection with STZ at 150 mg/kg i.p., dissolved in pH 4.5 citrate buffer. Treated mice were fasted for an additional 0.5 h and were then supplied with food and water as normal. Treated mice were allowed to develop diabetes for 7 d, and diabetes was verified using handheld blood glucose meters (CVS), targeting unfasted blood glucose level (BGL) above 600 mg/dL.
Mice were challenged with three intraperitoneal glucose tolerance tests (IPGTT).

STZ diabetic mice [4] = experiment: In vivo activity verification in overnight-fasted STZ diabetic mice; design: species or system mouse; settings: 0.1 mg/kg s.c.
Procedure: as §2
In Vivo Activity Verification. STZ induced diabetic mice were fasted for 8 h on the eighth day following induction, and mice with BGL>350 mg/dL in their overnight fasted state were randomly divided into groups (n=4/group). […] BGLs for each group were continuously monitored for 6 h after treatment. Mice were fasted during the entire experiment.

[5] = in vivo; cited from earlier work

## Insulin Detemir
[1]; 1 IU/kg daily
  blood glucose control with daily administration: did not sustain blood glucose control when this was not combined with overnight fasting
[1]; overnight-fasted, complexes 10.4 mg/kg, Insulin Detemir 1 IU/kg
  blood glucose level after 3 h, day 0 challenge: 71 mg/dL
Insulin receptor
  insulin receptor binding affinity relative to unmodified insulin: ~ 25%
STZ diabetic mice [2]; complexes every 5 d, 10.4 mg/kg, Insulin Detemir daily 1 IU/kg, 3 h fast
  blood glucose throughout 5 weeks of repeat dosing: did not provide sustained blood glucose correction
STZ diabetic mice [2]; daily dosing
  body weight reduction from pre-STZ levels: ~ 20%

## Insulin: recombinant human insulin, unmodified
[3]
  BGL correction over three IPGTT cycles: failed during the first IPGTT cycle
STZ diabetic mice [4]
  time after which blood glucose increased: ~ 120 min

## Insulin Glargine
[5]
  duration of action: 24 to 36 h
